# Molecular target: T1, CARM1 (Homo sapiens, UniProt Q86X55)
# T1 construct: Flag-CARM1-His; made in house; host or cells: HEK 293F cells infected with recombinant baculovirus (pFastBacMam)
# T1 sequence (Q86X55 1-585 isoform Q86X55-1): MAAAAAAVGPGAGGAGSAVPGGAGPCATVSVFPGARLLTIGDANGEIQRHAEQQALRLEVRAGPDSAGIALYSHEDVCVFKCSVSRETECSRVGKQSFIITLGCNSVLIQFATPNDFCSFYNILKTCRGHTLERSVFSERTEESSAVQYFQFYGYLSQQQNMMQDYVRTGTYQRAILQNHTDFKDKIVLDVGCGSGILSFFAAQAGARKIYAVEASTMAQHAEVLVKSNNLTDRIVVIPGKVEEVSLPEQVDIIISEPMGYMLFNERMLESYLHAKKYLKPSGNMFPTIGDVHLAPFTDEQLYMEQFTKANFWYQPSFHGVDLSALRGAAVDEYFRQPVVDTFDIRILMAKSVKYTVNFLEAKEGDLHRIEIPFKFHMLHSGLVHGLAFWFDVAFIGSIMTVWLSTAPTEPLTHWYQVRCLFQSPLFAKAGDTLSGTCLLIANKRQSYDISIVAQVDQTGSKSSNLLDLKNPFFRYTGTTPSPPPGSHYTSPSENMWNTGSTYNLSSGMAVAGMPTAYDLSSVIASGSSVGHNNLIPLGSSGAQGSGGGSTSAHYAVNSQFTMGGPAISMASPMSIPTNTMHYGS
# Test: CARM1 enzyme assay on peptide substrate (3H-SAM Flashplate)
# Assay type: biochemical
# Settings: CARM1 0.25 nM, 3H-SAM 30 nM, peptide 250 nM, 30 min preincubation; read-out: Biochem IC50
# Text: S-adenosylmethionine (SAM), S-adenosylhomocysteine (SAH), bicine, Tween20, dimethylsulfoxide (DMSO), bovine skin gelatin (BSG), sodium butyrate and Tris(2-carboxyethyl)phosphine hydrochloride solution (TCEP) were purchased from Sigma-Aldrich at the highest level of purity possible. ^3H-SAM was purchase from American Radiolabeled Chemicals with a specific activity of 80 Ci/mmol. 384-well streptavidin Flashplates were purchased from PerkinElmer.
# Peptide representative of human histone H3 residues 16-30 was synthesized with an N-terminal linker-affinity tag motif and a C-terminal amide cap by 21^St Century Biochemicals. The peptide was purified by high-performance liquid chromatography (HPLC) to greater than 95% purity and confirmed by liquid chromatography mass spectrometry (LC-MS). The sequence was Biot-Ahx-[…]-amide and contained a monomethylated arginine at position 26 (SEQ ID NO.:1).
# Human CARM1 (PRMT4) (NM_199141.1) transcript clone was amplified from an HEK 293 cDNA library, incorporating a flanking 5′ sequence encoding a FLAG tag ([…]) (SEQ ID NO.:2) fused directly to Ala 2 of CARM1 and 3′ sequence encoding a hexa His sequence ([…]) (SEQ ID NO.:3) fused directly to Ser 608. The gene sequence encoding isoform1 containing a deletion of amino acids 539-561 was amplified subsequently and subcloned into pFastBacMam (Viva Biotech). Protein Expression
# Recombinant baculovirus were generated according to Bac-to-Bac kit instructions (Life Technologies). Protein over-expression was accomplished by infecting exponentially growing HEK 293F cell culture at 1.3×10^6 cell/ml with virus (MOI=10) in the presence of 8 mM sodium butyrate. Infections were carried out at 37° C. for 48 hours, harvested by centrifugation, and stored at −80° C. for purification.
# Column was washed with 500 mM NaCl in buffer A and Flag-CARM1-His was eluted with 200 ug/ml FLAG peptide in buffer A. Pooled fractions were dialyzed in 20 mM Tris, 150 mM NaCl, 5% glycerol and 1 mM DTT, pH 7.8. The purity of recovered protein was 94.
# General Procedure for CARM1 Enzyme Assays on Peptide Substrates
# The assays were all performed in a buffer consisting of 20 mM Bicine (pH=7.6), 1 mM TCEP, 0.005% BSG, and 0.002% Tween 20, prepared on the day of use. Compounds in 100% DMSO (1 ul) were spotted into a polypropylene 384-well V-bottom plates (Greiner) using a Platemate Plus outfitted with a 384-channel head (Thermo Scientific). DMSO (1 ul) was added to Columns 11, 12, 23, 24, rows A-H for the maximum signal control and 1 ul of SAH, a known product and inhibitor of CARM1, was added to columns 11, 12, 23, 24, rows I-P for the minimum signal control. A cocktail (40 ul) containing the CARM1 enzyme was added by Multidrop Combi (Thermo-Fisher). The compounds were allowed to incubate with CARM1 for 30 min at room temperature, then a cocktail (10 ul) containing ^3H-SAM and peptide was added to initiate the reaction (final volume=51 ul). The final concentrations of the components were as follows: CARM1 was 0.25 nM, ^3H-SAM was 30 nM, peptide was 250 nM, SAH in the minimum signal control wells was 1 mM, and the DMSO concentration was 2%. The assays were stopped by the addition of non-radiolabeled SAM (10 ul) to a final concentration of 300 uM, which dilutes the ^3H-SAM to a level where its incorporation into the peptide substrate is no longer detectable. 50 ul of the reaction in the 384-well polypropylene plate was then transferred to a 384-well Flashplate and the biotinylated peptides were allowed to bind to the streptavidin surface for at least 1 hour before being washed once with 0.1% Tween20 in a Biotek ELx405 plate washer. The plates were then read in a PerkinElmer TopCount plate reader to measure the quantity of ^3H-labeled peptide bound to the Flashplate surface, measured as disintegrations per minute (dpm) or alternatively, referred to as counts per minute (cpm). […]
row,SMILES,IC50
1,CNCC(O)COc1cccc(-c2cc(NCCCCCNC(=O)c3cccnc3)c3cnn(C(C)C)c3n2)c1 (stereo not drawn) [Example 63-1],100 to 1000 nM
2,CNCC(O)COc1cccc(-c2cc(N)c3cnn(C(C)C)c3n2)c1 (stereo not drawn) [Example 4-1],1000 to 3000 nM
3,CNCC(O)COc1cccc(-c2cc(NCCCCCCNC(=O)c3ccn(C)n3)c3cnn(C(C)C)c3n2)c1 (stereo not drawn) [Example 66-1],100 to 1000 nM
4,CNCC(O)COc1cccc(-c2cc(NC(=O)OC)c3cnn(C(C)C)c3n2)c1 (stereo not drawn) [Example 16-1],100 to 1000 nM
5,CNCC(O)COc1cccc(-c2cc(NCCN)c3cnn(C(C)C)c3n2)c1 (stereo not drawn) [Example 9-1],100 to 1000 nM
6,CNCC(O)COc1cccc(-c2cc(NCc3nnn[nH]3)c3cnn(C(C)C)c3n2)c1 (stereo not drawn) [Example 27-1],< 100 nM
7,CNCC(O)COc1cccc(-c2cc(NCc3cnc4ccccn34)c3cnn(C(C)C)c3n2)c1 (stereo not drawn) [Example 53-1],< 100 nM
8,CC(C)n1ncc2c(N3CCOCC3)cc(-c3cccc(OC[C@@H](O)CN)c3)nc21 [Example 12-1],100 to 1000 nM
9,CNCC(O)COc1cccc(-c2cc(N[C@H]3CO[C@@H]4OCC[C@@H]43)c3cnn(C(C)C)c3n2)c1 (stereo partly drawn) [Example 47-1],100 to 1000 nM
10,CC(C)n1ncc2c(N3CCOCC3)cc(-c3cccc(OCC(O)CN)c3)nc21 (stereo not drawn) [Example 11-1],100 to 1000 nM
11,COC(=O)Nc1cc(-c2cccc(OCC(O)CN)c2)nc2c1cnn2C(C)C (stereo not drawn) [Example 10-1],100 to 1000 nM
12,CC(C)n1ncc2c(NCc3cccnc3)cc(-c3cccc(OCC(O)CN)c3)nc21 (stereo not drawn) [Example 25-1],3000 to 10000 nM
13,CNCC(O)COc1cccc(-c2cc(NCCCCN)c3cnn(C(C)C)c3n2)c1 (stereo not drawn) [Example 22-1],< 100 nM
14,COc1nc(C)cc(C)c1CNc1cc(-c2cccc(OCC(O)CN)c2)nc2c1cnn2C(C)C (stereo not drawn) [Example 55-1],< 100 nM
15,CCOC(=O)Nc1cc(-c2cccc(OCC(O)CN)c2)nc2c1cnn2C(C)C (stereo not drawn) [Example 17-1],100 to 1000 nM
16,CC(C)n1ncc2c(NCc3cnc4ccccn34)cc(-c3cccc(OCC(O)CN)c3)nc21 (stereo not drawn) [Example 50-1],< 100 nM
17,CNCC(O)COc1cccc(-c2cc(NCc3ccccn3)c3cnn(C(C)C)c3n2)c1 (stereo not drawn) [Example 34-1],100 to 1000 nM
18,CC(C)n1ncc2c(N(C)C3CCOCC3)cc(-c3cccc(OCC(O)CN)c3)nc21 (stereo not drawn) [Example 28-1],100 to 1000 nM
19,CC(C)n1ncc2c(NCC3CCOCC3)cc(-c3cccc(OCC(O)CN)c3)nc21 (stereo not drawn) [Example 30-1],< 100 nM
20,COC(=O)CNc1cc(-c2cccc(OCC(O)CN)c2)nc2c1cnn2C(C)C (stereo not drawn) [Example 18-1],100 to 1000 nM
21,CNCC(O)COc1cccc(-c2cc(NCC(=O)OC)c3cnn(C(C)C)c3n2)c1 (stereo not drawn) [Example 23-1],100 to 1000 nM
22,Cc1c(CNc2cc(-c3cccc(OCC(O)CN)c3)nc3c2cnn3C(C)C)cnn1C (stereo not drawn) [Example 37-1],3000 to 10000 nM
23,CNC(=O)Nc1cc(-c2cccc(OCC(O)CN)c2)nc2c1cnn2C(C)C (stereo not drawn) [Example 8-1],100 to 1000 nM
24,CNCC(O)COc1cccc(-c2cc(N(C)Cc3ccccn3)c3cnn(C(C)C)c3n2)c1 (stereo not drawn) [Example 44-1],100 to 1000 nM
25,CNCC(O)COc1cccc(-c2cc(N(C)C3CCOCC3)c3cnn(C(C)C)c3n2)c1 (stereo not drawn) [Example 40-1],100 to 1000 nM
26,CNCC(O)COc1cccc(-c2cc(NC(=O)NC3CCOCC3)c3cnn(C(C)C)c3n2)c1 (stereo not drawn) [Example 2-1],< 100 nM

row,SMILES,IC50
1,CNCC(O)COc1cccc(-c2cc(NC)c3cnn(C(C)C)c3n2)c1 (stereo not drawn) [Example 5-1],100 to 1000 nM
2,CNCC(O)COc1cccc(-c2cc(NCCNC(=O)c3cccnc3)c3cnn(C(C)C)c3n2)c1 (stereo not drawn) [Example 56-1],100 to 1000 nM
3,CC(C)n1ncc2c(NC(=O)NC3CCOCC3)cc(-c3cccc(OCC(O)CN)c3)nc21 (stereo not drawn) [Example 49-1],100 to 1000 nM
4,CC(C)n1ncc2c(NC(=O)OCc3ccccc3)cc(-c3cccc(OCC(O)CN)c3)nc21 (stereo not drawn) [Example 51-1],< 100 nM
5,CNCC(O)COc1cccc(-c2cc(NCCCCCN)c3cnn(C(C)C)c3n2)c1 (stereo not drawn) [Example 32-1],< 100 nM
6,CC(C)n1ncc2c(NCc3ccncc3)cc(-c3cccc(OCC(O)CN)c3)nc21 (stereo not drawn) [Example 26-1],< 100 nM
7,CNCC(O)COc1cccc(-c2cc(NC(=O)OCc3ccccc3)c3cnn(C(C)C)c3n2)c1 (stereo not drawn) [Example 54-1],100 to 1000 nM
8,CNCC(O)COc1cccc(-c2cc(N3CCOCC3)c3cnn(C(C)C)c3n2)c1 (stereo not drawn) [Example 20-1],< 100 nM
9,CNCC(O)COc1cccc(-c2cc(NC3CCOCC3)c3cnn(C(C)C)c3n2)c1 (stereo not drawn) [Example 29-1],3000 to 10000 nM
10,CNCC(O)COc1cccc(-c2cc(NC(=O)N(C)C)c3cnn(C(C)C)c3n2)c1 (stereo not drawn) [Example 21-1],100 to 1000 nM
11,CNCC(O)COc1cccc(-c2cc(NCCCNC(=O)c3ccn(C)n3)c3cnn(C(C)C)c3n2)c1 (stereo not drawn) [Example 60-1],100 to 1000 nM
12,CC(C)n1ncc2c(N3CCOCC3)cc(-c3cccc(OCC(O)CN)c3)nc21 (stereo not drawn) [Example 3-1],< 100 nM
13,CNCC(O)COc1cccc(-c2cc(NCc3cnn(C)c3C)c3cnn(C(C)C)c3n2)c1 (stereo not drawn) [Example 46-1],< 100 nM
14,CNCC(O)COc1cccc(-c2cc(NCCCCNC(=O)c3ccn(C)n3)c3cnn(C(C)C)c3n2)c1 (stereo not drawn) [Example 62-1],100 to 1000 nM
15,CNCC(O)COc1cccc(-c2cc(NCCCCCCN)c3cnn(C(C)C)c3n2)c1 (stereo not drawn) [Example 43-1],100 to 1000 nM
16,CNCC(O)COc1cccc(-c2cc(NC3CC3)c3cnn(C(C)C)c3n2)c1 (stereo not drawn) [Example 7-1],100 to 1000 nM
17,CC(C)n1ncc2c(NC3CCOCC3)cc(-c3cccc(OCC(O)CN)c3)nc21 (stereo not drawn) [Example 19-1],100 to 1000 nM
18,CNCC(O)COc1cccc(-c2cc(NCCNC(=O)c3ccn(C)n3)c3cnn(C(C)C)c3n2)c1 (stereo not drawn) [Example 58-1],100 to 1000 nM
19,CNCC(O)COc1cccc(-c2cc(NS(=O)(=O)N(C)C)c3cnn(C(C)C)c3n2)c1 (stereo not drawn) [Example 45-1],< 100 nM
20,CNCC(O)COc1cccc(-c2cc(NCCCN)c3cnn(C(C)C)c3n2)c1 (stereo not drawn) [Example 15-1],100 to 1000 nM
21,CNCC(O)COc1cccc(-c2cc(NC(=O)NC)c3cnn(C(C)C)c3n2)c1 (stereo not drawn) [Example 13-1],< 100 nM
22,CC(C)n1ncc2c(NC(=O)N(C)C)cc(-c3cccc(OCC(O)CN)c3)nc21 (stereo not drawn) [Example 14-1],100 to 1000 nM
23,CC(C)n1ncc2c(N(C)CC3CCOCC3)cc(-c3cccc(OCC(O)CN)c3)nc21 (stereo not drawn) [Example 42-1],< 100 nM
24,CNCC(O)COc1cccc(-c2cc(N3CCC(C(=O)OC)CC3)c3cnn(C(C)C)c3n2)c1 (stereo not drawn) [Example 52-1],< 100 nM
25,CNCC(O)COc1cccc(-c2cc(N(C)c3ccccn3)c3cnn(C(C)C)c3n2)c1 (stereo not drawn) [Example 33-1],100 to 1000 nM
